# Test results as given in ChEMBL document CHEMBL4627399, “Synthesis and Structure-Activity Relationships of 5'-Aryl-14-alkoxypyridomorphinans: Identification of a μ Opioid Receptor Agonist/δ Opioid Receptor Antagonist Ligand with Systemic Antinociceptive Activity and Diminished Opioid Side Effects” (J Med Chem, 2020).
# Calls of active or inactive are those of the source. The calls are words filed in the database; no cut-off is given here.
# What was measured:
# [1] = biological target: T1, Kappa-type opioid receptor (Homo sapiens, UniProt P41145); experiment: Displacement of [3H]-diprenorphine from human kappa opioid receptor expressed in CHO cell membranes incubated for 1 hr by competition radioligand binding assay
# [2] = biological target: T2, Delta-type opioid receptor (Homo sapiens, UniProt P41143); experiment: Displacement of [3H]-diprenorphine from human delta opioid receptor expressed in CHO cell membranes incubated for 1 hr by competition radioligand binding assay
# [3] = biological target: T2, Delta-type opioid receptor; experiment: Antagonist activity at human delta opioid receptor expressed in CHO cell membranes assessed as reduction in SNC80-induced [35S]GTPgammaS binding preincubated for 5 mins followed by SNC80 addition and measured after 1 hr; format: functional
# [4] = Stability in human liver microsomes at 1 uM measured up to 60 mins by LC-MS/MS analysis; format: ADME, Microsome; details: 1 h
# [5] = biological target: T3, Mu-type opioid receptor (Homo sapiens, UniProt P35372); experiment: biochemical
# [6] = biological target: T1, Kappa-type opioid receptor; experiment: Agonist activity at human kappa opioid receptor expressed in CHO cell membranes incubated for 1 hr by [35S]GTPgammaS binding assay; format: functional
# [7] = biological target: T3, Mu-type opioid receptor; experiment: biochemical; format: cell-based, CHO
# [8] = biological target: T1, Kappa-type opioid receptor; experiment: Agonist activity at human kappa opioid receptor expressed in CHO cell membranes assessed as stimulation of [35S]GTPgammaS binding incubated for 1 hr relative to […]; format: functional
SMILES,Ki [1] [nM],Ki [2] [nM],IC50 [3] [nM],Stability [4],EC50 [5] [nM],EC50 ([6]; read-out: EC50) [nM],Ki [7] [nM],Emax [8],EC50 ([6]; cho)
Oc1ccc2c3c1O[C@H]1c4ncc(-c5ccc(F)cc5)cc4C[C@@]4(OCCCc5ccccc5)[C@@H](C2)N(CC2CC2)CC[C@]314,6.69,3.42,34.5,Stable,117,56.6,2.33,–,–
Oc1ccc2c3c1O[C@H]1c4ncc(-c5ccccc5)cc4C[C@@]4(OCCCc5ccccc5)[C@@H](C2)N(CC2CC2)CC[C@]314,132,19.3,0.93,Stable,1.27,> 3330,23.1,–,–
Cc1ccc(-c2cnc3c(c2)C[C@@]2(OCCCc4ccccc4)[C@H]4Cc5ccc(O)c6c5[C@@]2(CCN4CC2CC2)[C@H]3O6)cc1,102,34.4,3.63,Stable,2.31,–,191,–,–
Cc1ccccc1-c1cnc2c(c1)C[C@@]1(OCCCc3ccccc3)[C@H]3Cc4ccc(O)c5c4[C@@]1(CCN3CC1CC1)[C@H]2O5,152,97.2,14.3,Stable,5.53,–,235,–,–
COc1cc(-c2cnc3c(c2)C[C@@]2(OCCCc4ccccc4)[C@H]4Cc5ccc(O)c6c5[C@@]2(CCN4CC2CC2)[C@H]3O6)ccn1,6.62,3.5,0.7,Stable,2.69,–,10.7,inactive,Not Active
Oc1ccc2c3c1O[C@H]1c4ncc(-c5ccc(Cl)cc5)cc4C[C@@]4(OCCCc5ccccc5)[C@@H](C2)N(CC2CC2)CC[C@]314,–,–,–,Stable,–,–,–,–,–
Cc1cccc(-c2cnc3c(c2)C[C@@]2(OCCCc4ccccc4)[C@H]4Cc5ccc(O)c6c5[C@@]2(CCN4CC2CC2)[C@H]3O6)c1,17.6,26.8,< 0.169,Stable,20.6,–,24.4,inactive,Not Active
CN(C)c1ccccc1-c1cnc2c(c1)C[C@@]1(OCCCc3ccccc3)[C@H]3Cc4ccc(O)c5c4[C@@]1(CCN3CC1CC1)[C@H]2O5,7.96,69.6,12.3,Stable,233,–,6.97,inactive,Not Active
Cn1cc(-c2cnc3c(c2)C[C@@]2(OCCCc4ccccc4)[C@H]4Cc5ccc(O)c6c5[C@@]2(CCN4CC2CC2)[C@H]3O6)cn1,8.4,7.96,19.6,Stable,659,–,3.79,inactive,Not Active
Oc1ccc2c3c1O[C@H]1c4ncc(-c5ccncn5)cc4C[C@@]4(OCCCc5ccccc5)[C@@H](C2)N(CC2CC2)CC[C@]314,30.8,22.1,0.71,Stable,> 3330,–,66.2,inactive,Not Active
Oc1ccc2c3c1O[C@H]1c4ncc(-c5ccccc5)cc4C[C@@]4(OCCCc5ccc(F)cc5)[C@@H](C2)N(CC2CC2)CC[C@]314,60.2,11,63.8,Stable,–,–,–,inactive,Not Active
Cc1cccc(C)c1-c1cnc2c(c1)C[C@@]1(OCCCc3ccccc3)[C@H]3Cc4ccc(O)c5c4[C@@]1(CCN3CC1CC1)[C@H]2O5,134,93.4,51.6,Stable,3.4,–,249,–,–
Oc1ccc2c3c1O[C@H]1c4ncc(-c5ccccc5)cc4C[C@@]4(OCCCCc5ccccc5)[C@@H](C2)N(CC2CC2)CC[C@]314,57.1,14.6,66.6,Stable,24.8,–,92.1,–,–
Oc1ccc2c3c1O[C@H]1c4ncc(-c5ccccc5C5CC5)cc4C[C@@]4(OCCCc5ccccc5)[C@@H](C2)N(CC2CC2)CC[C@]314,175,64.1,2.48,Stable,141,–,135,–,–
Oc1ccc2c3c1O[C@H]1c4ncc(-c5ccc(Br)cc5)cc4C[C@@]4(OCCCc5ccccc5)[C@@H](C2)N(CC2CC2)CC[C@]314,75.9,20.9,< 0.51,Stable,–,5.52,–,–,–
Cc1nocc1-c1cnc2c(c1)C[C@@]1(OCCCc3ccccc3)[C@H]3Cc4ccc(O)c5c4[C@@]1(CCN3CC1CC1)[C@H]2O5,23.1,64.5,0.68,Stable,3.46,–,99.3,–,–
